Measurements published in patent US7842681B2, “Treatment of myeoproliferative diseases” (Abbott Laboratories, priority 2006, dated 2010).

Legend:
platelets = assay: Activation of apoptotic processes in platelets; type: cell-based, dog and human
Bcl-XL = molecular target: T1, Bcl-XL (Homo sapiens, UniProt Q07817); assay: Binding to Bcl-XL protein
T1 construct: made in house
Experimental: Binding affinity of compounds to Bcl-XL protein is indicia of their inhibition of the activity of this protein. To determine the binding affinity of compounds to Bcl-XL protein, representative examples were diluted in DMSO to concentrations between 100 μM and 1 μM and added to each well of a 96-well microtiter plate. A mixture comprising 125 μL per well of assay buffer (20 mM phosphate buffer (pH 7.4), 1 mM EDTA, 50 mM NaCl, 0.05% PF-68), 6 nM of Bcl-XL protein (prepared as described in Science 1997, 275, 983-986), 1 nM fluorescein-labeled BAD peptide (prepared in-house) and the DMSO solution of the compound was shaken for 2 minutes and placed in a LJL Analyst (LJL Bio Systems, CA). A negative control (DMSO, 15 nM BAD peptide, assay buffer) and a positive control (DMSO, 1 nM BAD peptide, 6 nM Bcl-XL, assay buffer) were used to determine the range of the assay. Polarization was measured at room temperature using a continuous Fluorescein lamp (excitation 485 nm, emission 530 nm). Percentage of inhibition was determined by (1-((mP value of well-negative control)/range))×100%.

circulating platelets [1] = assay: Circulating platelet count in dogs on multiple oral daily dosing; type: in vivo; settings: male beagle dogs, once daily oral gavage, 2 mg/kg days 2-7, 6 mg/kg days 8-15 (FIG. 5)
Experimental: (§1) The effect of Bcl-2 protein inhibitors on circulating platelets can be determined by administration of test compounds, preferably orally or intravenously, to an animal and analyzing a blood sample and determining the number of platelets by techniques well-known in the art. Preferably, blood samples are obtained from about 2 hours to about 48 hours after compound administration.
Male beagle dogs (n=3/group; 8-12 kg) were treated once daily with N-(4-(4-((2-(4-chlorophenyl)-5,5-dimethyl-1-cyclohex-1-en-1-yl)methyl)piperazin-1-yl)benzoyl)-4-(((1R)-3-(morpholin-4-yl)-1-((phenylsulfanyl)methyl)propyl)amino)-3-((trifluoromethyl)sulfonyl)benzenesulfonamide in 10:90 DMSO/PEG 400 (by volume) by oral gavage at a dose of 2 mg/kg on days 2-7 and at a dose of 6 mg/kg on days 8-15 of the study. Blood samples were collected at baseline and 6 hours post dosing on days 2-5, 8-12 and day 15 from the jugular vein, treated with EDTA and the whole blood analyzed for platelet counts on a Cell-Dyn 3700 (Abbott Laboratories). Percent starting platelet counts (PC) were calculated using the following equation. [1−(PCt=0−PCt=6)/PCt=0]×100%.

dog platelets = assay: Viability of dog platelets; type: cell-based
human platelets = assay: Viability of human platelets; type: cell-based
Bcl-2 = assay: Binding to Bcl-2 protein
Experimental: Binding affinity of compounds to Bcl-2 protein is indicia of their inhibition of the activity of this protein. To determine the binding affinity of compounds to Bcl-2, representative examples were diluted in DMSO to concentrations between […] and added to each well of a 96-well microtiter plate. A mixture comprising 125 µL per well of assay buffer (20 mM phosphate buffer (pH 7.4), 1 mM EDTA, 50 mM NaCl, 0.05% PF-68), 10 nM of Bcl-2 protein (prepared according to the procedure described in PNAS 2001, 98, 3012-3017), 1 nM fluorescein-labeled BAX peptide (prepared in-house) and the DMSO solution of the representative example was shaken for 2 minutes and placed in a LJL Analyst (LJL Bio Systems, CA. Polarization was measured at room temperature using a continuous Fluorescein lamp (excitation 485 nm, emission 530 nm). Percentage of inhibition was determined by (1-((mP value of well-negative control)/range))×100%.

Bcl-w = molecular target: T2, Bcl-w (Homo sapiens, UniProt Q92843); assay: Binding to Bcl-w
T2 sequence (Q92843 1-193): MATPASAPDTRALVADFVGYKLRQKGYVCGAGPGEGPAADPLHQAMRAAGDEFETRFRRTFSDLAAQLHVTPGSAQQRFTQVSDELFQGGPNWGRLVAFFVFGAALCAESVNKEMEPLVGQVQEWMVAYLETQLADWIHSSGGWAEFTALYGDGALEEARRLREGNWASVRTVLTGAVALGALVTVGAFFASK

isolated platelets = assay: Aggregation of isolated platelets; type: cell-based
circulating platelets [2] = assay: Circulating platelet count in dogs after a single oral dose; type: in vivo; settings: male beagle dogs, one 5 mg/kg oral dose (FIG. 1, FIG. 2)
Experimental: as §1
Male beagle dogs (n=3/group; 8-12 kg) were treated with a single dose of 5 mg/kg N-(4-(4-((2-(4-chlorophenyl)-4,4-dimethylcyclohex-1-en-1-yl)methyl)piperazin-1-yl)benzoyl)-4-(((1R)-3-(morpholin-4-yl)-1-((phenylsulfanyl)methyl)propyl)amino)-3-((trifluoromethyl)sulfonyl)benzenesulfonamide in 10:30:60 ethanol/phosal 50 PG/PEG 400 (by weight) by oral gavage. Blood samples were collected at baseline and at the indicated time points from the jugular vein, treated with EDTA and the whole blood analyzed for platelet counts on a Cell-Dyn 3700 (Abbott Laboratories).
Male beagle dogs (n=3/group; 8-12 kg) were treated with a single dose of 5 mg/kg 3-((chloro(difluoro)methyl)sulfonyl)-N-(4-(4-((2-(4-chlorophenyl)-4,4-dimethylcyclohex-1-en-1-yl)methyl)piperazin-1-yl)benzoyl)-4-(((1R)-3-(morpholin-4-yl)-1-((phenylsulfanyl)methyl)propyl)amino)benzenesulfonamide in 10:90 DMSO/PEG 400 (by volume) by oral gavage. […]

T1 sequence (Q07817 whole entry): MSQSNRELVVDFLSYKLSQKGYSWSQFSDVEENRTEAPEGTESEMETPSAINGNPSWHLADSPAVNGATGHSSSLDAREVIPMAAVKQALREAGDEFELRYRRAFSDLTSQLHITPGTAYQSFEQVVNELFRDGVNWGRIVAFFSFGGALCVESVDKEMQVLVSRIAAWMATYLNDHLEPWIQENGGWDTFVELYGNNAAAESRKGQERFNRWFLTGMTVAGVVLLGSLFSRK

Compound | PS (phosphotidyl serine) externalization (platelets) | caspase 3 activation (platelets) | cytochrome c release (platelets) | binding to Bcl-XL (Bcl-XL) | circulating platelet count, multiple oral dosing (circulating platelets [1]) | viability of platelets (dog platelets) | viability of platelets (human platelets) | binding to Bcl-2 (Bcl-2) | binding to Bcl-w (Bcl-w) | aggregation of isolated platelets (isolated platelets) | circulating platelet count (circulating platelets [2])
CC1(C)CCC(c2ccc(Cl)cc2)=C(CN2CCN(c3ccc(C(=O)NS(=O)(=O)c4ccc(N[C@H](CCN5CCOCC5)CSc5ccccc5)c(S(=O)(=O)C(F)(F)F)c4)cc3)CC2)C1 [EXAMPLE 2, N-(4-(4-((2-(4-chlorophenyl)-5,5-dimethyl-1-cyclohex-1-en-1-yl)methyl)piperazin-1-yl)benzoyl)-4-(((1R)-3-(morpholin-4-yl)-1-((phenylsulfanyl)methyl)propyl)amino)-3-((trifluoromethyl)sulfonyl)benzenesulfonamide] | activated | activated | activated | capable of binding | proportionate effect | reduced | reduced | capable of binding | capable of binding | did not induce | 
CC1(C)CCC(CN2CCN(c3ccc(C(=O)NS(=O)(=O)c4ccc(N[C@H](CCN5CCOCC5)CSc5ccccc5)c(S(=O)(=O)C(F)(F)F)c4)cc3)CC2)=C(c2ccc(Cl)cc2)C1 [EXAMPLE 6, N-(4-(4-((2-(4-chlorophenyl)-4,4-dimethylcyclohex-1-en-1-yl)methyl)piperazin-1-yl)benzoyl)-4-(((1R)-3-(morpholin-4-yl)-1-((phenylsulfanyl)methyl)propyl)amino)-3-((trifluoromethyl)sulfonyl)benzenesulfonamide] |  |  |  |  |  |  |  |  |  |  | rapid reduction in circulating platelet count
CN(C)CC[C@H](CSc1ccccc1)Nc1ccc(S(=O)(=O)NC(=O)c2ccc(N3CCN(Cc4ccccc4-c4ccc(Cl)cc4)CC3)cc2)cc1[N+](=O)[O-] [EXAMPLE 7, N-(4-(4-((4′-chloro(1,1′-biphenyl)-2-yl)methyl)piperazin-1-yl)benzoyl)-4-(((1R)-3-(dimethylamino)-1-((phenylsulfanyl)methyl)propyl)amino)-3-nitrobenzenesulfonamide] |  |  |  | capable of binding |  |  |  | capable of binding | capable of binding |  | 
